{
  "source": "PubChem BioAssay AID624090",
  "about": "(The Scripps Research Institute Molecular Screening Center, 2012)",
  "target": "AmpC beta-lactamase (Escherichia coli)",
  "assay": "AmpC inhibition by nonselective VIM-2 inhibitor candidates, late-stage follow-up, selectivity assay for nonselective VIM-2 inhibitor project, biochemical, absorbance, probe candidates and analogs (AID 624090)",
  "settings": "recombinant AmpC, nitrocefin hydrolysis",
  "note": "The source made the active and inactive calls.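 The calls were made as follows: active = AmpC beta-lactamase inhibition with IC50 of 10 µM or lower; inactive = the rest.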",
  "data": [
    {"smiles": "CN1CCN(NC(=O)CN2C(=O)/C(=C/c3c(Cl)ccc(Cl)c3Cl)SC2=S)CC1", "values": [
      {"measurement": "IC50", "result": "> 60 µM (inactive)"}
    ]},
    {"smiles": "CN1CCN(NC(=O)CN2C(=O)/C(=C/c3c(Cl)cccc3Cl)SC2=S)CC1", "values": [
      {"measurement": "IC50", "result": "> 60 µM (inactive)"}
    ]}
  ]
}
